In series [1] the test system is MITF ubiquitination mediated by PIAS3 and METTL10. Nature of the series: In vitro ubiquitination assay with purified Flag-MITF. In kind it is biochemical. The conditions noted are these: 20 µM. As for the experimental part: For the in vitro Sumoylation assay, bacteria‐purified GST‐PIAS3 and HEK293T‐purified MITF were incubated with SAE1, UBC9 in reaction buffer according to the manufacturer's instructions at 37 °C for 2 h. For the in vitro ubiquitination assay, purified His‐METTL10, GST‐PIAS3, Flag‐MITF, SAE1, and UBC9 proteins were incubated with ubiquitin, UBE1, UBE2B, and RNF4 in reaction buffer according to the manufacturer's instructions at 37 °C for 2 h. All the samples were subjected to immunoprecipitation and subsequently boiled in SDS‐PAGE loading buffer for immunoblotting.

For another series, the target named is SUV39H2 (Homo sapiens, UniProt Q9H5I1). Nature of the series: Off-target methyltransferase profiling (MTase-Glo). In kind it is biochemical. As for the experimental part: (§1) To evaluate the off‐target effects of LZQ‐02‐023‐01 on methyltransferase activity, a panel of enzymes was assessed using the MTase‐Glo Methyltransferase Assay (Promega), following the manufacturer's instructions. The assay was performed by ICE Bioscience Inc. Briefly, LZQ‐02‐023‐01 was serially diluted 4‐fold in DMSO to generate a 10‐point concentration gradient, and the resulting solutions were dispensed into 384‐well white assay plates using an Echo acoustic liquid handler (Labcyte). Plates were centrifuged at 1000 rpm for 1 min to ensure even compound distribution. Following a 10‐min preincubation at 25 °C, 2 µL of a substrate solution containing S‐adenosylmethionine (SAM) and the specific methyltransferase substrate (Table S7, Supporting Information) was added to each well. After a brief centrifugation, plates were incubated at 25 °C for 180 min to allow the enzymatic methylation reaction to proceed. Subsequently, 1 µL of MTase‐Glo reagent was added, followed by centrifugation and incubation at 25 °C for 45 min. Then, 5 µL of MTase‐Glo detection solution was introduced into each well, and the plates were incubated for an additional 45 min at 25 °C after centrifugation.
(§2) Luminescence signals were directly proportional to methyltransferase activity, were recorded using a microplate reader (BMG LABTECH). Percent inhibition was calculated by normalizing luminescence intensities of compound‐treated wells to DMSO‐treated controls, and IC50 values were calculated using GraphPad Prism 8 software.

A further series deals with EZH1 (Homo sapiens, UniProt Q92800). As to the kind of experiment: Off-target methyltransferase profiling (MTase-Glo). In kind it is biochemical. How it is done: as §1, §2
In a further series the target is EZH2 [A677G] (Homo sapiens, UniProt Q15910, A677G). Nature of the series: Off-target methyltransferase profiling (MTase-Glo). In kind it is biochemical. How it is done: as §1, §2
The target in the next series is EZH2 [Y641N] (Homo sapiens, UniProt Q15910, Y641N). As to the kind of experiment: Off-target methyltransferase profiling (MTase-Glo). In kind it is biochemical. How it is done: as §1, §2
For another series, the target named is PRMT5+MTA (Homo sapiens, UniProt O14744). Nature of the series: Off-target methyltransferase profiling (MTase-Glo). The series is classed as biochemical. How it is done:
as §1, §2

A short description of series [2]: Acute toxicity, single intraperitoneal injection at escalating doses (LD50). The conditions noted are these: ICR, mouse, in vivo, ip, ICR mice, 24 h survival. As for the experimental part:
For the acute toxic study, 8‐week‐old ICR mice (n = 6 per group) were administered a single intraperitoneal injection of LZQ‐02‐023‐01 at escalating doses. A vehicle‐treated group served as control. Survival was monitored continuously for 24 h postadministration. Additionally, another cohort of ICR mice (n = 5 per group) received a single intraperitoneal dose of LZQ‐02‐023‐01 at 125 mg/kg and were subsequently monitored daily for 7 days for clinical signs of toxicity, behavioral changes, body weight fluctuations, and mortality. At the conclusion of the observation period, animals were euthanized and subjected to a comprehensive gross necropsy. Major organs, including the liver, kidney, heart, lung, and spleen, were harvested for histopathological examination. For the chronic toxic study, 8‐week‐old ICR mice (n = 5 per group) received daily intraperitoneal injections of LZQ‐02‐023‐01 at a therapeutic dose of 40 mg/kg for 14 consecutive days. A vehicle‐treated group was included as a control. Throughout the treatment period, animals were monitored daily for clinical signs of toxicity and weighed every 2 days. At study termination, blood samples were collected for hematological and biochemical analyses. […]

Series [3] has as its target other tested methyltransferases. Nature of the series: Off-target methyltransferase profiling, panel as a whole. The series is classed as biochemical. The conditions noted are these: all panel enzymes other than METTL10. How it is done: as §1, with “Then, 5 µL of MTase‐Glo detection solution was introduced into each well, and the plates were incubated for an additional 45 min at 25 °C after centrifugation.” left out
as §2

Series [4] has as its target T1, GFP-tagged METTL10 protein (Homo sapiens, UniProt Q5JPI9).
T1 construct: host or cells: HEK293T
Nature of the series: Microscale thermophoresis (MST). In kind it is binding. As to conditions: lysate of HEK293T cells expressing GFP-METTL10, read-out: Dissociation constant (KD). How it is done: Microscale thermophoresis (MST) assays were conducted following the protocol.^[ [49] ^] Briefly, HEK293T cells were transfected with either the pEGFP‐N1‐METTL10 plasmid or the control pEGFP‐N1‐Vector plasmid for 24 h. Subsequently, protein lysates were obtained through ultrasonic disruption at 4 °C. Aliquots of the lysate were then incubated with serially diluted ligands at 37 °C for 30 min. Fluorescence signals were measured, and dissociation constants (Kd) were determined using the NanoTemper Monolith Pico.

Another series has as its target T2, METTL10 (Homo sapiens, UniProt Q5JPI9).
T2 construct: His; made in house; host or cells: E. coli BL21
Nature of the series: MTase-Glo in vitro methylation assay, METTL10-mediated PIAS3 methylation. In kind it is biochemical. How it is done: For the in vitro methylation assay, His‐METTL10 (1 µg) was incubated with recombinant human Histone H4 protein (20 ng; Abcam, ab198115) or GST‐PIAS3 (100 ng) of in methylation reaction buffer (50 mM Tris‐HCl (pH 8.0), 20 mM KCl, 5 mM DTT, 4 mM EDTA) containing 20 µM S‐(5′‐adenosyl)‐L‐methionine chloride dihydrochloride (SAM) at 37 °C for 1 h. The reaction was terminated by boiling the samples in SDS‐PAGE loading buffer, and the products were analyzed by immunoblotting.
To identify METTL10 inhibitors, an in‐silico screening was first conducted on an in‐house compound library comprising approximately 6000 structurally diverse molecules. Molecular docking simulations with the METTL10 protein identified 111 candidate compounds for further analysis. The methyltransferase activity of these candidates was assessed using the MTase‐Glo Methyltransferase Assay (Promega, V7601) according to the manufacturer's protocol. Briefly, the candidate compounds were preincubated with His‐METTL10 protein (1 µg) at 37 °C for 1 h in a methylation reaction buffer (50 mM Tris‐HCl (pH 8.0), 20 mM KCl, 5 mM DTT, 4 mM EDTA, and 20 µM SAM), followed by the addition of either the Histone H4 or PIAS3 peptide substrate for an additional 1 h. The reaction was then subjected to MTase‐Glo reagent buffer for 30 min, followed by MTase‐Glo detection buffer for another 30 min. Luminescence was measured using a luminometer (Promega), and IC50 values were calculated using GraphPad Prism 8 software.

T2 sequence (Q5JPI9 1-291 isoform Q5JPI9-1): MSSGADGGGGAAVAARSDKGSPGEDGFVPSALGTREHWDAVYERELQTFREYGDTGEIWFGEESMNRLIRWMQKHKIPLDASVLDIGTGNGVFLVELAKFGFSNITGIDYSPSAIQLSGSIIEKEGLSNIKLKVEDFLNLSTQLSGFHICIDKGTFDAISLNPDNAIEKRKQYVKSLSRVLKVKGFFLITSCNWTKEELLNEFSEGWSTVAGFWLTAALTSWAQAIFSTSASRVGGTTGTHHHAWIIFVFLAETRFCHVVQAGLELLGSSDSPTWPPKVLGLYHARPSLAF
T1 sequence (Q5JPI9 1-291 isoform Q5JPI9-1): as above
PRMT5+MTA, sequence (O14744 whole entry, species assumed): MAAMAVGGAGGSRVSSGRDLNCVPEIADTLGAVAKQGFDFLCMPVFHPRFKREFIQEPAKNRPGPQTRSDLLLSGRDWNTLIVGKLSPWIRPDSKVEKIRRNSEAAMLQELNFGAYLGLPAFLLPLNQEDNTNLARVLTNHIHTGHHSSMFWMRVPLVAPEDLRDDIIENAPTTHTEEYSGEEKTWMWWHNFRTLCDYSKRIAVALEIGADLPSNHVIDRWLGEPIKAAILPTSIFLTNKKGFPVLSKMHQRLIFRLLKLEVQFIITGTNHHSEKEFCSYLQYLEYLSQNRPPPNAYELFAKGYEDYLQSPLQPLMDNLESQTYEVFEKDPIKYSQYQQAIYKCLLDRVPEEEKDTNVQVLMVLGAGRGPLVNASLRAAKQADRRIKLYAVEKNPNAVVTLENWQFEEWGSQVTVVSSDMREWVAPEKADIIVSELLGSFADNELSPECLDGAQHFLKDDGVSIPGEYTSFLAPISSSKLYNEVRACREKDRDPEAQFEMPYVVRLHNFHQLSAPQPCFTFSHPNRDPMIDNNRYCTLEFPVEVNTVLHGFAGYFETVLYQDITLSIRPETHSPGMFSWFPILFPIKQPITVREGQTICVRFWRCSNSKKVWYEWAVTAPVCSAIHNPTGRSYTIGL
PRMT5+MTA, sequence (Q9BQA1 whole entry partner, species assumed): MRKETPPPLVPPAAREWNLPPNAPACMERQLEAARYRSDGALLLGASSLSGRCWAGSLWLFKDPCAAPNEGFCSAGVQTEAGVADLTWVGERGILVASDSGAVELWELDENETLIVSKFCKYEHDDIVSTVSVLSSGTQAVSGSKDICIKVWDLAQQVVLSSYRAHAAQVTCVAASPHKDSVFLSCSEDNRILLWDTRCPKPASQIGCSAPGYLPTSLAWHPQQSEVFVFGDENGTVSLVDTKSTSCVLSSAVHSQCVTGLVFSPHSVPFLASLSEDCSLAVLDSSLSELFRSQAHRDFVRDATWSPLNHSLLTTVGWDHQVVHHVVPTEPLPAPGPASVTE
EZH1, sequence (Q92800 whole entry, species assumed): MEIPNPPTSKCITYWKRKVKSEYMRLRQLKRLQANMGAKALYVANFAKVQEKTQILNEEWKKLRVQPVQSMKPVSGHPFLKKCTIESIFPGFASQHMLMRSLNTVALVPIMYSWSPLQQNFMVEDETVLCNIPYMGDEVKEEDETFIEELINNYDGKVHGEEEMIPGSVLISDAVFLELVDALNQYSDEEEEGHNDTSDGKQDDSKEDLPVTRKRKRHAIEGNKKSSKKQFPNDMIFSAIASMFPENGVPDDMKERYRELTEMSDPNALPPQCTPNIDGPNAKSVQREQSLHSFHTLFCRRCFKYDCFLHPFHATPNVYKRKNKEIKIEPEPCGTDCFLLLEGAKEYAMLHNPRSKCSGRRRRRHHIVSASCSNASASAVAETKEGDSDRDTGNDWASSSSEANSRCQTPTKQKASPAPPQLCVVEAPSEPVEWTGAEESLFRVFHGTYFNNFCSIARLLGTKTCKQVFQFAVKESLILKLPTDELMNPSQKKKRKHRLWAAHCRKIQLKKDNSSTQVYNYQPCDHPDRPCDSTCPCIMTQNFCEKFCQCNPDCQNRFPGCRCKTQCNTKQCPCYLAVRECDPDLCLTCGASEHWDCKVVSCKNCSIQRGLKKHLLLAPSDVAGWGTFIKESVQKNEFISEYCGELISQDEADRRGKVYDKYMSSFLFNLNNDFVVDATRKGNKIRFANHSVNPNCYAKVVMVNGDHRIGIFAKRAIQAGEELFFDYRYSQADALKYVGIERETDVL
EZH1, sequence (O75530 whole entry partner, species assumed): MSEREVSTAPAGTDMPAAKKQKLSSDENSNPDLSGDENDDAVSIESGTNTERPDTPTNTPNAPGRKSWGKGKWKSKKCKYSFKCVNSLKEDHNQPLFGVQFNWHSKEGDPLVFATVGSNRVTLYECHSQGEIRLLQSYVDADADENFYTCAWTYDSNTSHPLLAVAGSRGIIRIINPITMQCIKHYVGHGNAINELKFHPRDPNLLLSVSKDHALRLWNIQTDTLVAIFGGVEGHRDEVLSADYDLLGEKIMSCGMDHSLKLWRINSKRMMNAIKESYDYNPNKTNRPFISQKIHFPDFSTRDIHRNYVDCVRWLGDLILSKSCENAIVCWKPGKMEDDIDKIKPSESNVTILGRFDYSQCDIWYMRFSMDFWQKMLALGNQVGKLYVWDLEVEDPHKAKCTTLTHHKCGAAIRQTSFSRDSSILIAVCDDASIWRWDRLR
EZH1, sequence (Q15022 whole entry partner, species assumed): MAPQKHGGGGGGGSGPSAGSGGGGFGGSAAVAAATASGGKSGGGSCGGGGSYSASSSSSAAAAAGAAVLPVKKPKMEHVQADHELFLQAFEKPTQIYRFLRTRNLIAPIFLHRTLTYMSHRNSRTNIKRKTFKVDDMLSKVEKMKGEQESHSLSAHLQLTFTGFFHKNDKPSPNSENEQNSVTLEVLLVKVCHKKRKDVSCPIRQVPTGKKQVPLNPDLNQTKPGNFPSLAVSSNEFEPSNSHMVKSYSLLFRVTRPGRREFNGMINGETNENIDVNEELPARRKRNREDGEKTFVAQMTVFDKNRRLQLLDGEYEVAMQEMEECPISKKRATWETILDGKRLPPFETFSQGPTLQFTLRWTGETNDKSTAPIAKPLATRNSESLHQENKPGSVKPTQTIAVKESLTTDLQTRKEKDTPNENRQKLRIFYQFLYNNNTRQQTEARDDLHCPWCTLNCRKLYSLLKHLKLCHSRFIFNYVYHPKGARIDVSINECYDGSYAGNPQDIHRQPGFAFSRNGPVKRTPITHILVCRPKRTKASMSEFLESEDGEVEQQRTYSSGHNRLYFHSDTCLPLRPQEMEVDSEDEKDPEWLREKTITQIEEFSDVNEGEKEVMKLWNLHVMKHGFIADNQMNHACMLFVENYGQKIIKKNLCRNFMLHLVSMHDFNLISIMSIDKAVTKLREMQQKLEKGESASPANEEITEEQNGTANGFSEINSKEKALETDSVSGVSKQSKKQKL
EZH1, sequence (Q09028 whole entry partner, species assumed): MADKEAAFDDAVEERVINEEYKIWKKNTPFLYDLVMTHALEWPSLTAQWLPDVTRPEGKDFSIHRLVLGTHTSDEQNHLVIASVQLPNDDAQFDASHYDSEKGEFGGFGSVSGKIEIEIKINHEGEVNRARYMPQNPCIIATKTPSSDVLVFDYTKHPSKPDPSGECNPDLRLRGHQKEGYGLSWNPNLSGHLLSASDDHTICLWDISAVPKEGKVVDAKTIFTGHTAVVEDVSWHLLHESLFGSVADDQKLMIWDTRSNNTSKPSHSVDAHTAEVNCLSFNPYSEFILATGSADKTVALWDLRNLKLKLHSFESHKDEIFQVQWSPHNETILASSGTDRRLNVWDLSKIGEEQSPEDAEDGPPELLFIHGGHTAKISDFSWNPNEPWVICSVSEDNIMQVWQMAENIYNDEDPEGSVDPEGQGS
EZH2 [A677G], sequence (Q15910 whole entry A677G): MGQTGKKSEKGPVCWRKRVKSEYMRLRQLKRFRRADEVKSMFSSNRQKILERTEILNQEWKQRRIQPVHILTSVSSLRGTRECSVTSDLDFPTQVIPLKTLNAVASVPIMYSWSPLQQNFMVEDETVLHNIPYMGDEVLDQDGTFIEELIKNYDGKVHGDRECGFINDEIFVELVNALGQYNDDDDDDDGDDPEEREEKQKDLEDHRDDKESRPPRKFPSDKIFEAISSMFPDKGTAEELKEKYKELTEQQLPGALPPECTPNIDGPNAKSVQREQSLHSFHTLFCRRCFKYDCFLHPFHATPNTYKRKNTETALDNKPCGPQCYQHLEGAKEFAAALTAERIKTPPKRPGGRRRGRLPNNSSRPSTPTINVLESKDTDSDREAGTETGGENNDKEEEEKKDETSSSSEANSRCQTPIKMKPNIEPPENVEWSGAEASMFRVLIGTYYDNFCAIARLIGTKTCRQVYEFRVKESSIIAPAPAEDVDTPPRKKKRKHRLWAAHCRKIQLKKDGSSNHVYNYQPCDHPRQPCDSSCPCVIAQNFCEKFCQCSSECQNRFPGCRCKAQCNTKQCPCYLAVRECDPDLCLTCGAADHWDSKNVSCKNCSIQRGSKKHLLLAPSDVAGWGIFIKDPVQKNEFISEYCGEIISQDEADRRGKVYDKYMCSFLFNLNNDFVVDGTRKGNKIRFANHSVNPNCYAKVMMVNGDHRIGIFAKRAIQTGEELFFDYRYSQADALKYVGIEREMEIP
EZH2 [A677G], sequence (O75530 whole entry partner): as the sequence (O75530 whole entry partner, species assumed) above
EZH2 [A677G], sequence (Q15022 whole entry partner): as the sequence (Q15022 whole entry partner, species assumed) above
EZH2 [A677G], sequence (Q09028 whole entry partner): as the sequence (Q09028 whole entry partner, species assumed) above
SUV39H2, sequence (Q9H5I1 whole entry, species assumed): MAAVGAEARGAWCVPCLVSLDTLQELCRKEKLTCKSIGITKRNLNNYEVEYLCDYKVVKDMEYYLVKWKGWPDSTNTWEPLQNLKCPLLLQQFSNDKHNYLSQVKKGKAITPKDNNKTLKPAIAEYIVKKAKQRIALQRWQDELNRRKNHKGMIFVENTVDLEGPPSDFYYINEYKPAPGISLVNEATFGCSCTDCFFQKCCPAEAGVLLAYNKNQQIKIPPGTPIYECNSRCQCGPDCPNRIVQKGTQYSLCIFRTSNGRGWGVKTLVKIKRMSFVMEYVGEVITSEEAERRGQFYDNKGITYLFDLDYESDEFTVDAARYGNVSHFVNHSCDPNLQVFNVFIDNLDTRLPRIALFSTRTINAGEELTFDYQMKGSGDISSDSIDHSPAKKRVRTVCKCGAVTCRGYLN

With `Cc1ccc(Nc2ncc3c(n2)N(C)C(=O)N(c2cccc(N)c2)C3)cn1` [LZQ-02-023-01, Three‐(3‐aminophenyl)‐1‐methyl‐7‐((6‐methylpyridin‐3‐yl)amino)‐3,4‐dihydropyrimido [4,5‐d] pyrimidin‐2 (1H)‐one], in [1], the “PIAS3-mediated ubiquitination and degradation of MITF, cell-free system” value is listed as “significantly promoted”. Besides, the concentration for half-maximal inhibition (IC50) – broadly, the point on the concentration scale where inhibition reaches its midpoint – against SUV39H2 was 11 µM; against EZH1 it was 28.9 µM; at EZH2 [A677G], 13.7 µM; against EZH2 [Y641N], 12.4 µM; against PRMT5+MTA, 13.9 µM; in [3], over 3000 nM. For the same compound, the half-inhibitory concentration (IC50) at METTL10 (MTase-Glo, bacteria-purified GST-PIAS3 substrate, read-out: IC50, inhibition of METTL10 activity toward PIAS3) was found to be 11.8 µM. Further, the 50% lethal dose (LD50) (in general, the dose expected to kill half of the subjects tested) at 24 h in series [2] was determined as 213 mg/kg. In addition, the equilibrium dissociation constant (Kd) – broadly, the equilibrium constant for the complex coming apart – in series [4] turned out to be 4.47 µM. On METTL10 (METTL10 activity toward GST-PIAS3), the “Structure-activity relationship, rank among structural analogs” value is recorded as “most potent inhibitor among its structural analogs”. At METTL10 (METTL10 activity toward PIAS3), the “Rank of potency among the 22 hit compounds” value is given as “strongest potency”.

Source of the values: publication PMC12752606, “METTL10‐Mediated PIAS3 Methylation Links Purine Metabolism to Gastric Cancer Progression” (Advanced Science, 2025).
